What was measured:
[1] = system: human MCF-7 breast cancer; settings: MCF-7 tumor system, scid mice; cited from earlier work
[2] = system: HL-60 leukemia; settings: scid mice; a number of the animals without tumor at day 45; cited from earlier work
[3] = molecular target: alpha/beta IV; settings: cited from earlier work
[4] = molecular target: T1, alpha/beta II (Bos taurus, UniProt Q6B856); settings: cited from earlier work
T1 construct: from tissue; host or cells: bovine cerebra

[5] = molecular target: T2, alpha/beta III (Bos taurus, UniProt Q2T9S0); settings: cited from earlier work
T2 construct: from tissue; host or cells: bovine brain (cerebra)

[6] = system: colon tumors of min mouse; settings: in the diet at 250 ppm, cited from earlier work
[7] = molecular target: T3, thioredoxin reductase/thioredoxin (Homo sapiens, UniProt Q16881); settings: cited from earlier work
T3 sequence (Q16881 1-499 isoform Q16881-5): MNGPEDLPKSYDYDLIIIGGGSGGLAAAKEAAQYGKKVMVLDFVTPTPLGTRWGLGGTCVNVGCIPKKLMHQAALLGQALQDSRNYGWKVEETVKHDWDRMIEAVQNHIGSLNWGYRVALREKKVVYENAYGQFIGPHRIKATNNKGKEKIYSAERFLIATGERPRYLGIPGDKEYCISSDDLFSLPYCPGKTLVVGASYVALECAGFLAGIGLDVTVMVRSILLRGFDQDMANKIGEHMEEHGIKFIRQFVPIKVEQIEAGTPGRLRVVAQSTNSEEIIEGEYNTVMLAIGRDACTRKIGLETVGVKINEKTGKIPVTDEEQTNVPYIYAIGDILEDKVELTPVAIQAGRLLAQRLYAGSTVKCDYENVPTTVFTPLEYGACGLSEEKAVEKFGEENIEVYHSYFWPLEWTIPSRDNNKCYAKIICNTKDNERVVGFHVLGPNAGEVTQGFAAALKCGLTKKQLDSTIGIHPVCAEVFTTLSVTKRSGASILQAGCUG

[8] = molecular target: T4, thioredoxin reductase (Homo sapiens, UniProt Q16881); settings: cited from earlier work
T4 sequence (Q16881 1-499 isoform Q16881-5): T3 sequence (Q16881 1-499 isoform Q16881-5)

[9] = 2.5 mg/kg, mice; cited from earlier work
[10] = molecular target: T5, thioredoxin reductase and thioredoxin (Homo sapiens, UniProt P10599+Q16881); settings: cited from earlier work
T5 sequence (Q16881 151-649 limits assumed): T3 sequence (Q16881 1-499 isoform Q16881-5)
T5 sequence (P10599 1-105): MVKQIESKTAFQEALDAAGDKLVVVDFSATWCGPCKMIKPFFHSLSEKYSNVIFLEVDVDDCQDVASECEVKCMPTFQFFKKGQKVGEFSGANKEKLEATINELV

[11] = system: BT-549 breast cancer cell line; assay: drug resistance of breast cancer cell line; assay type: cell-based; settings: BT-549 compared with MCF-7
[12] = molecular target: alpha/beta III dimer (Bos taurus, UniProt Q2T9S0); settings: compared with alpha/beta II and alpha/beta IV dimers; cited from earlier work
[13] = molecular target: T6, erythrocyte tubulin (Gallus gallus, UniProt P09207); design: dose or concentration left out as unconfirmed; settings: cited from earlier work
T6 construct: from tissue; host or cells: chicken erythrocytes

[14] = system: brain tubulin; design: dose or concentration left out as unconfirmed; settings: cited from earlier work

T1 sequence (Q6B856 whole entry): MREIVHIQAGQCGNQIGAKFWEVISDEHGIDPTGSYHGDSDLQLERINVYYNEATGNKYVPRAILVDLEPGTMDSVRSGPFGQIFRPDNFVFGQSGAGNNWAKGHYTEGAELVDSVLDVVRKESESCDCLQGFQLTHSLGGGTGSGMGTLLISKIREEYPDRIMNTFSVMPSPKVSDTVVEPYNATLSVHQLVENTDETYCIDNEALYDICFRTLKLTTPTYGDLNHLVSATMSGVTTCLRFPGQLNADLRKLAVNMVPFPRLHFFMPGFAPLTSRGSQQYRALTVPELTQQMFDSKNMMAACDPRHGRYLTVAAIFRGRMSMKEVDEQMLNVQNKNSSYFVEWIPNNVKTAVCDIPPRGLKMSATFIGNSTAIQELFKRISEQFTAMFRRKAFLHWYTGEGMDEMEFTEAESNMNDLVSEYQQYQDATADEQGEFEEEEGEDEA
T1 sequence (P81947 whole entry partner): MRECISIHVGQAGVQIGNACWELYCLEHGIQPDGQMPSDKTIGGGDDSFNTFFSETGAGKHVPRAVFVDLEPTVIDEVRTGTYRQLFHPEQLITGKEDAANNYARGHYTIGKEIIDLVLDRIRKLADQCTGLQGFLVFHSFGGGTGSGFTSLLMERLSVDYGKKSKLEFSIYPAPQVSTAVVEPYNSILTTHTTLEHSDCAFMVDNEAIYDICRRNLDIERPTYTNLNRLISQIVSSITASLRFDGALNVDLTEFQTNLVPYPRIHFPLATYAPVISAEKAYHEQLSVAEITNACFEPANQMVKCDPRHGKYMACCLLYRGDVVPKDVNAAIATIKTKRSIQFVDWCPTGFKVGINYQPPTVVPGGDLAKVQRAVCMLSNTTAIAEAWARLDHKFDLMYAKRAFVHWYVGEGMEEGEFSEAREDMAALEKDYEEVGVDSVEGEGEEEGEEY
alpha/beta III dimer, sequence (Q2T9S0 whole entry): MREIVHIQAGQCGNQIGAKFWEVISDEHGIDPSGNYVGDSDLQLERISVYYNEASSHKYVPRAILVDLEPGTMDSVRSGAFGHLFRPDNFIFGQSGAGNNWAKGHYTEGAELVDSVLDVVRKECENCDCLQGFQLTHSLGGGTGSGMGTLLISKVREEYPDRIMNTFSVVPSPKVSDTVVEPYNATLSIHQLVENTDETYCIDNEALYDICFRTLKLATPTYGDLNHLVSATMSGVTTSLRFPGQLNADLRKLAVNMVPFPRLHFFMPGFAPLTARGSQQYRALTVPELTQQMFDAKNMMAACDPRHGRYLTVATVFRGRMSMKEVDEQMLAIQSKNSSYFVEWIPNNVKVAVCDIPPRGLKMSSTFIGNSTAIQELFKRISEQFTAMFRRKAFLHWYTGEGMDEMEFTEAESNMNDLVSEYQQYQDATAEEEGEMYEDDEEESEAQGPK
alpha/beta III dimer, sequence (P81947 whole entry partner, looked up): as the sequence (P81947 whole entry partner) above
T2 sequence (Q2T9S0 whole entry): as the sequence (Q2T9S0 whole entry) above
T2 sequence (P81947 whole entry partner): as the sequence (P81947 whole entry partner) above
T6 sequence (P09207 whole entry): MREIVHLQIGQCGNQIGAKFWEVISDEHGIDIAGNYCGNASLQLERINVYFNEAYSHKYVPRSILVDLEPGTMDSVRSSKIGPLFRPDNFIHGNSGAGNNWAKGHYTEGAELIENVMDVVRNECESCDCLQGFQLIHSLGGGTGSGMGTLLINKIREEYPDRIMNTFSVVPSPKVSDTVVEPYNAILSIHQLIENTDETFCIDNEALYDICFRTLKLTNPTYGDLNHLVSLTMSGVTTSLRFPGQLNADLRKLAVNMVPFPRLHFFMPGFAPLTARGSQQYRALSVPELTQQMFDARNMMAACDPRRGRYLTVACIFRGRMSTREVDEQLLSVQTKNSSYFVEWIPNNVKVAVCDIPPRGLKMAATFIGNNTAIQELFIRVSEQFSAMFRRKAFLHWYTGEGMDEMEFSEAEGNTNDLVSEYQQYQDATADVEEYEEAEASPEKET

Compound: c1ccc(CSSc2ncc[nH]2)cc1 [DLK-36, benzyl-2-imidazolyl disulfide]
- tumor inhibition [1]: 65%
- antitumor activity against HL-60 leukemia [2]: showed antitumor activity

Compound: COc1cc(OC)c(Cl)c(-n2c(-c3ccccc3)cc(=O)c(C)c2-c2ccc(F)cc2)c1 [IKP-104]
- apparent dissociation constant for the high-affinity site (Kd1) [3]: greater than those of unfractionated tubulin, alpha/beta II, or alpha/beta III
- apparent dissociation constant for the high-affinity site (Kd1) [4]: lower than that of unfractionated tubulin
- apparent dissociation constant for the high-affinity site (Kd1) [5]: lower than that of unfractionated tubulin

Compound: CCC(C)SSc1ncc[nH]1 (centres unmarked) [IV-2, 1-methylpropyl 2-imidazolyl disulfide]
- tumor inhibition [1]: 98%
- size of remaining tumors ([6]; p<0.001 compared to control): significant reduction
- reduction of the number of tumors in the colon ([6]; p=0.0160): 70%
- antitumor activity against HL-60 leukemia [2]: showed antitumor activity

Compound: CCCCCCCC(=O)OC1C2C(CC1(C)C)C(=O)C13OC1C(=O)C1(CO1)C23C (centres unmarked) [NSC 163027]
- activity in the thioredoxin reductase/thioredoxin-dependent insulin assay [7]: active
- inhibition of thioredoxin reductase alone [8]: did not inhibit thioredoxin reductase alone

Compound: Cc1cccc2c1c1ccc3c(c1n2C)C(=O)C=CC3=O [NSC 645330]
- activity in the thioredoxin reductase/thioredoxin-dependent insulin assay [7]: active
- inhibition of thioredoxin reductase alone [8]: did not inhibit thioredoxin reductase alone

Compound: O=[N+]([O-])C(=C(Sc1ccccc1)Sc1ccccc1)C(Cl)=C(Cl)Cl [NSC 665103]
- activity in the thioredoxin reductase/thioredoxin-dependent insulin assay [7]: active
- inhibition of thioredoxin reductase alone [8]: did not inhibit thioredoxin reductase alone

Compound: CC1=C(CO)C2=C(C)C3(CC3)[C@@](C)(O)C(=O)C2=C1 [irofulven]
- tolerability [9]: tolerable
- inhibition of thioredoxin reductase and thioredoxin [10]: selectively inhibit both thioredoxin reductase and thioredoxin

Compound: CC(=O)O[C@H]1C(=O)[C@@]2(C)[C@H]([C@H](OC(=O)c3ccccc3)[C@]3(O)C[C@H](OC(=O)[C@H](O)[C@@H](NC(=O)c4ccccc4)c4ccccc4)C(C)=C1C3(C)C)[C@]1(OC(C)=O)CO[C@@H]1C[C@@H]2O [paclitaxel]
- resistance of cell line to drug [11]: resistant
- interaction of alpha/beta III dimer with ligand [12]: much less strongly

Compound: CC[C@]1(O)C[C@@H]2CN(CCc3c([nH]c4ccccc34)[C@@](C(=O)OC)(c3cc4c(cc3OC)N(C)[C@H]3[C@@](O)(C(=O)OC)[C@H](OC(C)=O)[C@]5(CC)C=CCN6CC[C@]43[C@@H]65)C2)C1 [vinblastine]
- resistance of cell line to drug [11]: resistant
- erythrocyte tubulin formed spirals [13]: 74%
- brain tubulin aggregated into spirals [14]: About 42%

Compound: cryptophycin
- resistance of cell line to drug [11]: resistant

Source: patent publication US20060148674A1, “Therapeutic composition” (priority 2004, published 2006)
